Reference: patent publication US11186598B2, “Radioactive phospholipid metal chelates for cancer imaging and therapy” (Wisconsin Alumni Research Foundation, priority 2016, dated 2021)

System: flank U87 tumors
Test: MRI comparison of Gd-DO3A-404 and DOTAREM in mice with flank U87 tumors (Example 5)
Assay type: in vivo, mouse
Conditions: as compared to Gd-DO3A-404
Source text: To verify that uptake and retention was due to targeting of the “404” moiety, we directly compared the uptake of Gd-DO3A-404 with that of DOTA-chelated Gd^3+ (DOTAREM®) in an identical tumor model (mice with flank U87 tumors) and imaging scenario, using the same number of moles of each.
We the quantified the tumor to muscle ratio and compare it to baseline scans.

In the case of `CNC[C@H](O)[C@@H](O)[C@H](O)[C@H](O)CO.O=C([O-])CN1CCN(CC(=O)[O-])CCN(CC(=O)O)CCN(CC(=O)[O-])CC1.[Gd+3]` [DOTAREM®], the “tumor to muscle ratio compared to baseline scans (uptake)” value was “less striking, and significant only at a couple of early time points”.
